Reference: patent US20260217708A1, “FUSED BENZAZEPINE DERIVATIVES FOR USE IN THE TREATMENT OF CANCER AND EPILEPSY” (UCB BIOPHARMA SRL, priority 2023, published 2026)

Key:
system Xc^− [1] = biological target: T1, system Xc^− (Homo sapiens, UniProt Q9UPY5); experiment: [^14C]L-Cystine uptake assay; format: cell-based; design: endogenous in cells; host or cells: H4 cells; settings: H4 cells, sodium-free HEPES buffer, 0.5 μM L-[14C]Cystine and 4.5 μM L-Cystine, 1 hour at 37° C.; read-out: pIC50 [^14C] L-Cystine uptake assay (converted)
T1 sequence (Q9UPY5 1-501): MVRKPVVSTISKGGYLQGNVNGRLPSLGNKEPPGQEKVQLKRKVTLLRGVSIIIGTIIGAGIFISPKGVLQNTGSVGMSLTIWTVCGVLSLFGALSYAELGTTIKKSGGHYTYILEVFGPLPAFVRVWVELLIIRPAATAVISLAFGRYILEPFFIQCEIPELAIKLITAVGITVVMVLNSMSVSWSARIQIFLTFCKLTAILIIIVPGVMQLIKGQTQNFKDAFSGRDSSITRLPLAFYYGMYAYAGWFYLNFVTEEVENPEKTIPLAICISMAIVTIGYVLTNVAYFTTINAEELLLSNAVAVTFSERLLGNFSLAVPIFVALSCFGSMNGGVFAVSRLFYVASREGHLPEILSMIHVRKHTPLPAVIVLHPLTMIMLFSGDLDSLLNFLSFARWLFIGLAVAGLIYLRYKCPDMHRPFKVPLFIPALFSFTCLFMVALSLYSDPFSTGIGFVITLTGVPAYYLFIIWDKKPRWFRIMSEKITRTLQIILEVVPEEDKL
T1 sequence (P08195 1-529 partner): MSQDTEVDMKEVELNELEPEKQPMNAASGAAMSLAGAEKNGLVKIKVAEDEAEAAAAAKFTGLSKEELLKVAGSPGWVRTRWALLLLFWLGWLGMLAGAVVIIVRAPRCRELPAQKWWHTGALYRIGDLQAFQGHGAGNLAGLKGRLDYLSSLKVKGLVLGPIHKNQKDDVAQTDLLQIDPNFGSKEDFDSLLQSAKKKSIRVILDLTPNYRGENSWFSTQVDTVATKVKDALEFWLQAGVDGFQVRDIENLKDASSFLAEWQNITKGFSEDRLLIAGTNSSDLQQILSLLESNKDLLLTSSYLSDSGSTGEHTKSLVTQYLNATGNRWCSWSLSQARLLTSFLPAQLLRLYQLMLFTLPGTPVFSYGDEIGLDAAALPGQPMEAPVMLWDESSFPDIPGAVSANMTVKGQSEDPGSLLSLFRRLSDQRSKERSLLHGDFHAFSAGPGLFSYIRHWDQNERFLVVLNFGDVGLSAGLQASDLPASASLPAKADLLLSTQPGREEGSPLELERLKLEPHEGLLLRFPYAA
How it was run: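 Compound effect is given as pIC50, taken between controls of 1% DMSO and 50 μM Erastin. Human H4 cells were pretreated 15 min with compound in sodium-free buffer, then took up 0.5 μM [14C]cystine with 4.5 μM cold cystine for 1 hour at 37° C, read by scintillation proximity counting.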

system Xc^− [2] = biological target: T1, system Xc^−; experiment: Cystine-induced glutamate release assay; format: cell-based; design: endogenous in cells; host or cells: H4 cells; settings: H4 cells, sodium-free HEPES buffer, 50 μM L-Cystine, 2 hours, Amplex Red glutamate readout; read-out: pIC50 Cystine-induced glutamate release assay (converted)
How it was run: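 IC50 (reported as pIC50) normalized to DMSO 1% and Erastin 50 μM controls, from Amplex Red fluorescence of glutamate exported into supernatant. H4 cells were washed into sodium-free buffer to exclude EAAT transport, then given compound with 50 μM L-cystine for 2 h in the incubator.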

Row | SMILES | IC50 (system Xc^− [1]) [nM] | IC50 (system Xc^− [2]) [nM]
1 | Cc1cc2c(c(F)n1)-c1ncc(F)cc1CC(=O)N2CC(=O)Nc1ccc(Cl)c(F)c1 [#417, N-(4-chloro-3-fluoro-phenyl)-2-(5,15-difluoro-13-methyl-9-oxo-3,10,14-triazatricyclo[9.4.0.0^2,7]pentadeca-1(11),2,4,6,12,14-hexaen-10-yl)acetamide] | 15.8 to 39.8 | 39.8 to 100
2 | Cc1cc2c(c(Cl)n1)-c1ccnn1CC(=O)N2CC(=O)Nc1ccc(C(F)(F)F)cc1 [#100, 2-(14-chloro-12-methyl-8-oxo-5,6,9,13-tetrazatricyclo[8.4.0.0^2,6]tetradeca-1(14),2,4,10,12-pentaen-9-yl)-N-[4-(trifluoromethyl)phenyl]acetamide] | 39.8 to 100 | 39.8 to 100
3 | Cc1cc2c(c(Cl)n1)-c1cccnc1C(C)C(=O)N2CC(=O)Nc1ccc(C(F)F)nc1 (single isomer, unassigned) [#230, Enantiomer (10R) or (10S) of 2-[3-chloro-5,10-dimethyl-9-oxo-4,8,12-triazatricyclo[9.4.0.0^2,7]pentadeca-1(11),2(7),3,5,12,14-hexaen-8-yl]-N-[6-(difluoromethyl)-3-pyridyl]acetamide] | 15.8 to 39.8 | 15.8 to 39.8
4 | CC1C(=O)N(CC(=O)Nc2ccc(Cl)c(F)c2)c2cc(N3[C@@H]4CCC[C@H]3C4)nc(F)c2-c2cccnc21 (single isomer, unassigned) [#269, 2-[5-(6-azabicyclo[3.1.1]heptan-6-yl)-3-fluoro-10-methyl-9-oxo-4,8,12-triazatricyclo[9.4.0.0^2,7]pentadeca-1(11),2(7),3,5,12,14-hexaen-8-yl]-N-(4-chloro-3-fluoro-phenyl)acetamide] | 39.8 to 100 | 39.8 to 100
5 | CCOc1nc(C)cc2c1-c1cccnc1CC(=O)N2CC(=O)Nc1ccc(C(F)(F)F)cc1 [#82, 2-(3-ethoxy-5-methyl-9-oxo-4,8,12-triazatri-cyclo[9.4.0.0^2,7]penta-deca-1(15),2(7),3,5,11, 13-hexaen-8-yl)-N-[4-(trifluoromethyl)phenyl] acetamide] | 39.8 to 100 | 100 to 501
6 | COc1cc2c(c(OC)n1)-c1cccnc1CC(=O)N2CC(=O)Nc1ccc(C(F)(F)F)cc1 [#108, 2-(3,5-dimethoxy-9-oxo-4,8,12-triazatricyclo[9.4.0.0^2,7]pentadeca-1(11),2,4,6,12,14-hexaen-8-yl)-N-[4-(trifluoromethyl)phenyl]acetamide] | < 15.8 | 39.8 to 100
7 | COc1nc(C)cc2c1-c1ccnn1CC(=O)N2CC(=O)Nc1ccc(C(F)(F)F)cc1 [#99, 2-(14-methoxy-12-methyl-8-oxo-5,6,9,13-tetrazatricyclo[8.4.0.0^2,6]tetradeca-1(14),2,4,10,12-pentaen-9-yl)-N-[4-(trifluoromethyl)phenyl]acetamide] | 100 to 501 | 39.8 to 100
8 | CC1C(=O)N(CC(=O)Nc2ccc(Cl)c(F)c2)c2cc(N3CC(F)(F)C3)ncc2-c2cccnc21 (single isomer, unassigned) [#293, N-(4-chloro-3-fluoro-phenyl)-2-[5-(3,3-difluoroazetidin-1-yl)-10-methyl-9-oxo-4,8,12-triazatricyclo[9.4.0.0^2,7]pentadeca-1(15),2,4,6,11,13-hexaen-8-yl]acetamide] | 15.8 to 39.8 | 39.8 to 100
9 | CN1CCN(c2cc3c(cn2)-c2ccccc2CC(=O)N3CC(=O)Nc2ccc(C(F)(F)F)cc2)CC1=O [#46, 2-[3-(4-methyl-3-oxo-piperazin-1-yl)-6-oxo-7H-pyrido[4,3-d][3]benzazepin-5-yl]-N-[4-(trifluoromethyl)phenyl]acetamide] | 15.8 to 39.8 | 39.8 to 100
10 | Cc1cc2c(n(C)c1=O)-c1ccnn1C(C)C(=O)N2CC(=O)Nc1ccc(Cl)c(F)c1 (stereo not shown) [#353, N-(4-chloro-3-fluoro-phenyl)-2-(7,12,14-trimethyl-8,13-dioxo-5,6,9,14-tetrazatricyclo[8.4.0.0^2,6]tetradeca-1(10),2,4,11-tetraen-9-yl)acetamide] | 39.8 to 100 | 15.8 to 39.8
11 | CC1C(=O)N(CC(=O)Nc2ccc(Cl)c(F)c2)c2cc(C#N)c(F)cc2-c2cccnc21 (single isomer, unassigned) [#394, N-(4-chloro-3-fluoro-phenyl)-2-[9-cyano-10-fluoro-5-methyl-6-oxo-5H-pyrido[2,3-d][1]benzazepin-7-yl]acetamide] | 39.8 to 100 | 15.8 to 39.8
12 | CC1C(=O)N(CC(=O)Nc2ccc(Cl)c(F)c2)c2cc(Cl)cc(F)c2-c2nnccc21 (single isomer, unassigned) [#383, 2-[9-chloro-11-fluoro-5-methyl-6-oxo-5H-pyridazino[4,3-d][1]benzazepin-7-yl]-N-(4-chloro-3-fluoro-phenyl)acetamide] | 15.8 to 39.8 | 39.8 to 100

The next lines start with the values.

Row | IC50 (system Xc^− [1]) [nM] | IC50 (system Xc^− [2]) [nM] | SMILES
13 | < 15.8 | 15.8 to 39.8 | Cc1cc2c(cn1)-c1cccnc1[C@@H](C)C(=O)N2CC(=O)Nc1ccc(C(F)(F)F)cc1 (single isomer, unassigned) [#201, Enantiomer (10R) or (10S) of 2-[5,10-dimethyl-9-oxo-4,8,12-triazatricyclo[9.4.0.0^2,7]pentadeca-1(11),2(7),3,5,12,14-hexaen-8-yl]-N-[4-(trifluoromethyl)phenyl]acetamide]
14 | 15.8 to 39.8 | 15.8 to 39.8 | Cc1cc2c(c(F)n1)-c1cccnc1[C@@H](C)C(=O)N2CC(=O)Nc1ccc(OC(F)F)cc1 [#139, N-[4-(difluoromethoxy)phenyl]-2-[(10R)-3-fluoro-5,10-dimethyl-9-oxo-4,8,12-triazatricyclo[9.4.0.0^2,7]pentadeca-1(11),2(7),3,5,12,14-hexaen-8-yl]acetamide]
15 | 39.8 to 100 | 39.8 to 100 | Cc1cc2c(c(F)n1)-c1cccnc1C(O)C(=O)N2CC(=O)Nc1ccc(C(F)(F)F)cc1 (stereo not shown) [#94, 2-(3-fluoro-10-hydroxy-5-methyl-9-oxo-4,8,12-triazatricyclo[9.4.0.0^2,7]pentadeca-1(15),2(7),3,5,11,13-hexaen-8-yl)-N-[4-(trifluoromethyl)phenyl]acetamide]
16 | 39.8 to 100 | 100 to 501 | Cc1cc2c(c(F)n1)-c1cc[nH]c(=O)c1CC(=O)N2CC(=O)Nc1ccc(C(F)(F)F)cc1 [#183, 2-(3-fluoro-5-methyl-9,12-dioxo-4,8,13-triazatricyclo[9.4.0.0^2,7]pentadeca-1(11),2(7),3,5,14-pentaen-8-yl)-N-[4-(trifluoromethyl)phenyl]acetamide]
17 | 39.8 to 100 | 100 to 501 | Cc1cc2c(c(F)n1)-c1cccnc1[C@H](C)C(=O)N2CC(=O)Nc1ccc(C(F)(F)F)cc1 (single isomer, unassigned) [#191]
18 | < 15.8 | < 15.8 | Cc1cc2c(c(F)n1)-c1cccnc1[C@@H](F)C(=O)N2CC(=O)Nc1ccc(C(F)(F)F)cc1 (single isomer, unassigned) [#195, Enantiomer (10R) or (10S) of 2-(3,10-difluoro-5-methyl-9-oxo-4,8,12-triazatricyclo[9.4.0.0^2,7]pentadeca-1(11),2(7),3,5,12,14-hexaen-8-yl)-N-[4-(trifluoromethyl)phenyl]acetamide]
19 | < 15.8 | 15.8 to 39.8 | Cc1cc2c(c(F)n1)-c1cccnc1[C@@H](C)C(=O)N2CC(=O)Nc1ccc(C(F)(F)F)c(F)c1 [#143, 2-[(10R)-3-fluoro-5,10-dimethyl-9-oxo-4,8,12-triazatricyclo[9.4.0.0^2,7]pentadeca-1(11),2(7),3,5,12,14-hexaen-8-yl]-N-[3-fluoro-4-(trifluoromethyl)phenyl]acetamide]
20 | 15.8 to 39.8 | 39.8 to 100 | COc1cc2c(c(F)n1)-c1cccnc1CC(=O)N2CC(=O)Nc1ccc(C(F)(F)F)cc1 [#124, 2-(3-fluoro-5-methoxy-9-oxo-4,8,12-triazatricyclo[9.4.0.0^2,7]pentadeca-1(11),2,4,6,12,14-hexaen-8-yl)-N-[4-(trifluoromethyl)phenyl]acetamide]
